Values joined by “and” are separate entries in the source; they are usually repeats but may differ in a detail not shown here. Equal values may be shown once. Read-outs that look alike come from different tables or passages of the source.

For data set [1], the system named is normal human fibroblasts (MHRF). Nature of the data set: MTT cytotoxicity, normal human fibroblasts. Type of data set: cell-based. The settings on record: for CD50 against MHRF: MTT. As for the experimental part: (§1) As a first step, the antitumor activity of the tolans was assessed against a panel of three cancer cells lines that produce solid tumors upon implantation into animals. DU145 is an androgen-independent prostate cancer cells. T24 is a transitional cell bladder carcinoma cell. MDAH2274 (“MDAH) is an endometroid ovarian adenocarcinoma cell. To assess the selectivity of this antitumor activity, the toxicity of the tolans to normal human fibroblasts (MHRF) was examined. Subsequently, studies with Tolan-3 (KST-201) were expanded to test its action on a wide range of tumor cell lines.
(§2) Cell killing was evaluated using the colorimetric MTT assay. The assay measures the formation of a colored product from a chromogenic precursor, the tetrazole 3-[4,5-dimethylthiazol-2-yl]-2,5 diphenyltetrazolium bromide (MTT). The yellow MTT is reduced to purple formazan in the mitochondria of living cells. A solubilization solution (typically dimethyl sulfoxide or sodium dodecyl sulfate in dilute hydrochloric acid) is added to dissolve the insoluble purple formazan product into a colored solution. The absorbance of this colored solution is quantified by measuring at a certain wavelength (usually between 500 and 600 nm) by a spectrophotometer. The amount of purple formazan product generated is proportional to the number of viable cells (Mosmann, T., 1983, J. Immunol. Meth. 65:55-63; Wilson, A. P., Cytotoxicity and Viability Assays. In: Animal Cell Culture: A Practical Approach, 3rd ed. (Masters, J R W, ed.) Oxford University Press: Oxford, Vol. 1, pp. 175-219. 2000). This MTT assay is used widely to assess the cytotoxicity and selectivity of compounds such as anti-cancer drugs. The assay is suitable for rapid toxicity characterization of a test agent such as a drug formulation. […] A lower CD50 indicates a greater cytotoxic activity (as a lower amount of the agent is needed to achieve a fixed level of cytotoxicity). Two agents can be compared by examining the fold-increase or decrease in their CD50 values.

A further data set deals with HCT116. Nature of the data set: MTT cytotoxicity, HCT116 colon. Type of data set: cell-based. The settings on record: Homo sapiens, HCT-116, 72 h; 3 Days; read-out: CD50 (μM) HCT116. As for the experimental part: as §2, with “Two agents can be compared by examining the fold-increase or decrease in their CD50 values.” left out
The next data set has as its system Vero cells. Nature of the data set: Cytotoxicity (CD50) on Vero cells. Type of data set: cell-based. The conditions noted are these: 48 hours of exposure. The source says: See Example II for tumor cell cytotoxicity of these compounds. […] NAB group 32 contains two compounds, Tolan-2 (also designated herein as KST-201) and Stil-2. Based on the NAB, they were classified as topological isomers. However, chemically they differ because Stil-2, a […], contained a double bonded linker, while Tolan-2 contained a triple bonded linker. The cytotoxicity of the two molecules on Vero cells differed markedly: Tolan-2 was less toxic than Stil-2.

The test system of another data set is MDAH2274. In words: MTT cytotoxicity, MDAH2274 ovarian cancer cells. Type of data set: cell-based, human. As for the experimental part: As a first step, the antitumor activity of the tolans was assessed against a panel of three cancer cells lines that produce solid tumors upon implantation into animals. DU145 is an androgen-independent prostate cancer cells. T24 is a transitional cell bladder carcinoma cell. MDAH2274 (“MDAH) is an endometroid ovarian adenocarcinoma cell. To assess the selectivity of this antitumor activity, the toxicity of the tolans to normal human fibroblasts (MHRF) was examined.
as §2, with “The amount of purple formazan product generated is proportional to the number of viable cells (Mosmann, T., 1983, J. Immunol. Meth. 65:55-63; Wilson, A. P., Cytotoxicity and Viability Assays. In: Animal Cell Culture: A Practical Approach, 3rd ed. (Masters, J R W, ed.) Oxford University Press: Oxford, Vol. 1, pp. 175-219. 2000).” left out

The subject of a further data set is HSV-1. In words: HSV-1 replication in infected Vero cells (plaque assay). Type of data set: cell-based, Herpes Simplex Virus-Type 1. The settings on record: for IC50: Human alphaherpesvirus 1, Vero, read-out: IC50, concentration at which 50% of HSV-1 replication was inhibited. As for the experimental part:
For this purpose HSV-1 replication at 24, 48 and 72 h was examined in the presence or absence of varying concentrations of the polyphenol.
The SI is the ratio of the CD50 divided by a selected inhibitory concentration (IC %).
Viral inhibition by Tolan-3 appeared to occur after viral entry into cells. […] Subsequently, the compound was removed and replaced with culture medium alone, and the incubated continued for 48 or 72 more hrs. In a second experiment, HSV-1 infected Vero cells were incubated with 350 μM Tolan-3 for 48 h. Thereafter, the Tolan-3 was removed and replaced by medium and the incubation continued for an additional 24 h. Viral titers were calculated by a standard plaque assay.

For the next data set, the system named is SKMEL28. In words: MTT cytotoxicity, SKMEL28 melanoma. Type of data set: cell-based. The settings on record: Homo sapiens, SK-MEL-28, 72 h; 3 Days; read-out: CD50 (μM) SKMEL28. As for the experimental part:
as §2, with “Two agents can be compared by examining the fold-increase or decrease in their CD50 values.” left out

The test system of a further data set is DU145. Nature of the data set: MTT cytotoxicity, DU145 prostate cancer cells. The settings on record: for IC50: MTT, read-out: CD50 against DU145. It counts as cell-based, human. As for the experimental part:
as §1, §2

The mark [2] stands for this setting: Homo sapiens, 24 h, MTT, 1 day incubation, read-out: CD50 against MDAH, compound tested individually.
[3] abbreviates: Homo sapiens, 48 h, MTT, 2 days incubation, read-out: CD50 against MDAH, compound tested individually.
Where [4] appears, read: Homo sapiens, 72 h, MTT, 3 days incubation, read-out: CD50 against MDAH, compound tested individually.
The mark [5] stands for this setting: MTT, 1 day incubation, read-out: CD50 against MDAH, compound tested individually.
[6] abbreviates: Homo sapiens, DU-145, 24 h, 1 day incubation.
Setting [7] is: Homo sapiens, DU-145, 48 h, 2 days incubation.
The mark [8] stands for this setting: Homo sapiens, DU-145, 72 h, 3 days incubation.

With `Oc1ccc(/C=C/c2cc(O)cc(O)c2)cc1` [Resveratrol, 3,5,4′-trihydroxy-trans-stilbene, reference compound], the “CD50 against MHRF” value in data set [1] (1 day incubation) was 154.8 ± 16.5 µM; in data set [1] (1 day incubation, listed as resveratrol), 155 µM; in data set [1] (2 days incubation) it was 50.9 ± 0.6 µM; in data set [1] (3 days incubation) it was 44.3 ± 3.0 µM and 47 ± 6.0 µM; in data set [1] (3 days incubation, listed as resveratrol) it was 44 µM. The IC50 amounted to 94 ± 0.1 µM in the data set on HCT116; 37 µM in the data set on MDAH2274 (setting [2]); 23.1 ± 0.14 µM in the data set with MDAH2274 (setting [3]); 15 µM in the data set with MDAH2274 (setting [4]); 36.9 ± 2.45 µM in the data set on MDAH2274 (setting [5]); 14.6 ± 0.12 µM in the data set on MDAH2274 (MTT, 3 days incubation, read-out: CD50 against MDAH, compound tested individually). Also, the IC50 in the data set on HSV-1 is 23.4 µM; in the data set with SKMEL28, 69 ± 1.2 µM; in the data set on DU145 (setting [6]), 92 µM; in the data set with DU145 (setting [7]), 58.2 ± 0.4 µM; with DU145 (setting [8]) it was 28 µM; in the data set with DU145 (1 day incubation) it was 92.2 ± 2.9 µM. The IC50 with DU145 (3 days incubation) is 27.9 ± 0.65 µM. In the data set on Vero cells, this compound came in with a CD50 of 264 µM. Further, in the data set on Vero cells, the “Log CD50” value worked out at 2.42.

On to `Oc1ccc(C#Cc2ccc(O)cc2)cc1` [KST-201, 4,4′-dihydroxytolan], for which the “CD50 against MHRF” value is 194.1 ± 9.60 µM in data set [1] (2 days incubation); 153 µM and 153.2 ± 4.40 µM and 153 ± 4.4 µM in data set [1] (3 days incubation). Besides, the “Fold less toxic to normal fibroblasts than resveratrol” value in data set [1] (Table 15 vs Table 14) was 3.5 fold. Also, the IC50 is 129 ± 4 µM in the data set with HCT116; 22 µM with MDAH2274 (setting [2]); 1.16 µM in the data set on MDAH2274 (Homo sapiens, 24 h, VC:KST-201 400:1, 1 day, read-out: CD50 (μM) of each Compound tested in combination, MDAH 2274); 10.5 ± 2.7 µM in the data set on MDAH2274 (setting [3]); 0.97 ± 0.02 µM with MDAH2274 (Homo sapiens, 48 h, VC:KST-201 400:1, 2 days, read-out: CD50 (μM) of each Compound tested in combination, MDAH 2274); 3.1 µM with MDAH2274 (setting [4]). In addition, the IC50 with MDAH2274 (Homo sapiens, 72 h, VC:KST-201 400:1, 3 days, read-out: CD50 (μM) of each Compound tested in combination, MDAH 2274) was 0.98 µM; in the data set on MDAH2274 (MTT, 1 day incubation, listed as Hydroxytolan, read-out: CD50 against MDAH, compound tested individually) it was 21.5 ± 7.4 µM; in the data set on MDAH2274 (MTT, 1 day incubation, listed as hydroxytolan, read-out: CD50 against MDAH, compound tested individually), 21.5 µM; with MDAH2274 (setting [5]), 21.5 ± 7.35 µM; in the data set on HSV-1 it was 15.6 µM; with SKMEL28, 82 ± 10 µM. For the same compound, the IC50 was found to be 57 µM in the data set with DU145 (setting [6]), 16.8 ± 0.63 µM in the data set on DU145 (setting [7]), 9.4 µM in the data set with DU145 (setting [8]) and 57.3 ± 0.81 µM with DU145 (1 day incubation). In addition, the CD50 in the data set on Vero cells is 106 µM. Besides, in the data set on Vero cells, the “Log CD50” value is given as 2.03. Besides, the “Fold more potent in killing MDAH2274 cells vs. control MHRF fibroblasts” value with MDAH2274 is given as 50 fold. Moreover, the “Fold more toxic to MDAH 2274 ovarian cancer cells than resveratrol” value in the data set with MDAH2274 (Table 15 vs Table 14) amounted to 4.7 fold. In addition, the “Increase of cytotoxic potency in the combination, MDAH 2274” value in the data set with MDAH2274 (VC:KST-201 400:1, 1 day) was “about 20 fold”. Also, the “SI50 (selectivity index, CD50 divided by IC50)” value in the data set with HSV-1 (48 h post-infection) is listed as 6.8. For the same compound, the “Effect on HSV-1 viral replication in Vero cells (in words)” value in the data set with HSV-1 (at CD50, 75% and 50% of CD50, 24, 48, 72 h) is “significant anti-HSV activity”. Further, the “Fold more potent against DU145 cells compared to control MHRF fibroblasts” value with DU145 came out at 16 fold. The “Fold more toxic to DU145 prostate cancer cells than resveratrol” value with DU145 (Table 15 vs Table 14) was determined as 3 fold.
